# In patent US10596291B2, “Effective anti-bacteria and anti-viral air treatment device” (KONINKLIJKE PHILIPS N.V., priority 2014, dated 2020):
# Where two headings read alike, the source gives them in different places.
# Experiment: Particle generation and ozone consumption by type of terpene in 26.5 m^3 test chamber
# Type: physicochemical
# Procedure: Some further measurements were done with setups as describe above. Data in relation to particle generation and ozone consumption as function of type of terpene were determined. […] It is clear that e.g. eucalyptol and thymol is most desired amongst these four options.
# [1] = terpene approx. 1 mg/m^3, 26.5 m^3 test chamber, initial ozone 100 ppb
# [2] = terpene concentration 1 mg/m^3, 26.5 m^3 test chamber, initial ozone 100 ppb
Compound,Particle yield [1],average O3 consumption [2] [%],Particle yield,average O3 consumption [%]
C=CCc1ccc(O)c(OC)c1 [Eugenol],18742.9 10^6/mol,15,–,–
"CC12CCC(CC1)C(C)(C)O2 [Eucalyptol, Eucalyptol (1,8-cineol)]",779.9 10^6/mol,2,–,–
Cc1ccc(C(C)C)cc1O [Carvacrol],–,–,851.8 10^6/mol,0
y-terpinene,–,–,112499.9 10^6/mol,19

# Further lines, with some results ahead:
Particle yield [1],average O3 consumption [2] [%],Compound,Particle yield,average O3 consumption [%]
498.2 10^6/mol,2,Cc1ccc(C(C)C)c(O)c1 [Thymol],–,–
94003.4 10^6/mol,31,C=C(C)[C@H]1CC=C(C)CC1 [Limonene],–,–
76911.2 10^6/mol,44,C=CC(C)(O)CCC=C(C)C (stereo not shown) [Linalool],–,–
57608.1 10^6/mol,54,CC(C)=CCC/C(C)=C/CO [Geraniol],–,–
